What all share (experiment): Eurofins kinase selectivity profile against 380 other human recombinant kinases (Table S2)
Holding throughout (assay type): biochemical

Experiment [1] concerns the target T1, 380 human recombinant protein kinases (Homo sapiens, UniProt P00519, Q252H).
T1 construct: purchased Eurofins (Celle Lévescault)
The following applies: Abl (Q252H) (h), read-out: Inhibition rate. In a few lines:
(§1)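 Commercial selectivity screen of the test compound against a panel of 380 human recombinant protein kinases, run by an outside contractor at several compound concentrations to check whether its potency was specific for MK2.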

Experiment [2] concerns the target T2, 380 human recombinant protein kinases (Homo sapiens, UniProt P49759).
T2 construct: purchased Eurofins (Celle Lévescault)
The following applies: CLK1(h), read-out: Inhibition rate. In a few lines:
as §1

Experiment [3] deals with T3, 380 human recombinant protein kinases (Homo sapiens, UniProt Q04771).
T3 construct: purchased Eurofins (Celle Lévescault)
T3 sequence (Q04771 21-509): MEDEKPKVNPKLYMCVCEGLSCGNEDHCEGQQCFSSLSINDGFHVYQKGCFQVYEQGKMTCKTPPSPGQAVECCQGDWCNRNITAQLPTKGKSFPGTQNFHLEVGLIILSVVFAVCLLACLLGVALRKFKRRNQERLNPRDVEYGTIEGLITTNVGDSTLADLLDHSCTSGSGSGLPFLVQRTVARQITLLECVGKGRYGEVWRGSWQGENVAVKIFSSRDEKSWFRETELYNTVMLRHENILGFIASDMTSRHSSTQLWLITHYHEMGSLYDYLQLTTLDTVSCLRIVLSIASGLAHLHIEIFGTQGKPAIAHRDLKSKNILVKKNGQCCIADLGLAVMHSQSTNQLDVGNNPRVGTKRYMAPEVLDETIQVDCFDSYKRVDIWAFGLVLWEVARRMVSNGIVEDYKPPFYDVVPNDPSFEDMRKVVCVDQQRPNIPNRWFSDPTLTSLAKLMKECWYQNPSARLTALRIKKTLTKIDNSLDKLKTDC
The conditions noted are these: ALK2(h), read-out: Inhibition rate. In a few lines:
as §1

The target of experiment [4] is T4, 380 human recombinant protein kinases (Homo sapiens, UniProt Q15835).
T4 construct: purchased Eurofins (Celle Lévescault)
T4 sequence (Q15835 1-563): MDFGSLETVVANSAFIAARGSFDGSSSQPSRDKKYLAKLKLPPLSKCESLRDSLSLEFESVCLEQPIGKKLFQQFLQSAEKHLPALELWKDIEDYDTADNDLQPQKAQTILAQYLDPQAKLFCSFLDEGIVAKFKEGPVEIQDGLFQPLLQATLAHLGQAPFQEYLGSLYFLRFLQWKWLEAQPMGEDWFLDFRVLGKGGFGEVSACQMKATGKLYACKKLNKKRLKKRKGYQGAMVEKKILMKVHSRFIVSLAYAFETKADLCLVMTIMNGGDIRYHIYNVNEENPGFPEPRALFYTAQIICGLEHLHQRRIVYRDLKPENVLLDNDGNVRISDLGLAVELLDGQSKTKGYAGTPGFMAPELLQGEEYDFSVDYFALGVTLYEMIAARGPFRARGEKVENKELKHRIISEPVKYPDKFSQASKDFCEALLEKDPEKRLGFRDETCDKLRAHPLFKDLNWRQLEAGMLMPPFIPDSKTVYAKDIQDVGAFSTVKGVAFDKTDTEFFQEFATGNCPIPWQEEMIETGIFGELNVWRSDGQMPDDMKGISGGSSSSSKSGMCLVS
The conditions noted are these: GRK1(h), read-out: Inhibition rate. Put shortly:
as §1

Experiment [5] has as its target T5, 380 human recombinant protein kinases (Homo sapiens, UniProt Q8IU85).
T5 construct: purchased Eurofins (Celle Lévescault)
The conditions noted are these: CaMKIδ(h), read-out: Inhibition rate. In a few lines: as §1

The target of experiment [6] is T6, 380 human recombinant protein kinases (Homo sapiens, UniProt Q9H2X6).
T6 construct: purchased Eurofins (Celle Lévescault)
T6 sequence (Q9H2X6 whole entry): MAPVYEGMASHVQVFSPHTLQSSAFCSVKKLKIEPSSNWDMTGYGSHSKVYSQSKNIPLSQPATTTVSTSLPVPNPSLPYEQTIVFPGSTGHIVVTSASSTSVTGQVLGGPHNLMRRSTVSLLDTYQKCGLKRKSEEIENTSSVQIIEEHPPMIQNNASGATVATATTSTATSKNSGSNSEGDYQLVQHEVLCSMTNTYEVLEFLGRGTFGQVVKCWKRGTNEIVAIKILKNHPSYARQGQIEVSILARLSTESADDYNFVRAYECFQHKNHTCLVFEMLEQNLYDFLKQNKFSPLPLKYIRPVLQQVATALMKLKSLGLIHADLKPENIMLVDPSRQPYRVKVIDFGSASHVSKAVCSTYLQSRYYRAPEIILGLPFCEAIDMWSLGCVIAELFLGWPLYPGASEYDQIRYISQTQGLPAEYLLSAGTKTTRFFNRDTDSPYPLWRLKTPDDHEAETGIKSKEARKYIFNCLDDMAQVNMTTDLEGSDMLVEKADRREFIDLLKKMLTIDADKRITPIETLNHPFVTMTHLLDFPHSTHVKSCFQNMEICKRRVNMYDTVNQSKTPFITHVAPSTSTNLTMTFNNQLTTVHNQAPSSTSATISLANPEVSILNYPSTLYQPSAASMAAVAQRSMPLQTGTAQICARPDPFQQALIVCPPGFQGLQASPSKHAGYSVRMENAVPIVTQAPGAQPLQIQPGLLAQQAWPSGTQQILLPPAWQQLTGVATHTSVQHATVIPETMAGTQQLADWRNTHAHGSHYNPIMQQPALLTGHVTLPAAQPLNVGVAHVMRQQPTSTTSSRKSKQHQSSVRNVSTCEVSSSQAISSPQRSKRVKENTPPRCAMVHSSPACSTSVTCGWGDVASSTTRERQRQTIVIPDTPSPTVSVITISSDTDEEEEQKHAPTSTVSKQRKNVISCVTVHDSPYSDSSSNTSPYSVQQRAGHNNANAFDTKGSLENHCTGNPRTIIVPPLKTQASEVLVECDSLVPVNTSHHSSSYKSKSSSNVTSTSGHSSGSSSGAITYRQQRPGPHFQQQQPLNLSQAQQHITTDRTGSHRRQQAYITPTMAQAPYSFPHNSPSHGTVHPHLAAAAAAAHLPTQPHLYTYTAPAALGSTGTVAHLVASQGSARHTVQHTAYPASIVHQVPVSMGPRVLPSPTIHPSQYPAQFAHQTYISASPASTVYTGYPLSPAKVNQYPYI
The conditions noted are these: HIPK2(h), read-out: Inhibition rate. In a few lines: as §1

Experiment [7] deals with T7, 380 human recombinant protein kinases (Homo sapiens, UniProt Q9Y2U5).
T7 construct: purchased Eurofins (Celle Lévescault)
T7 sequence (Q9Y2U5 1-619): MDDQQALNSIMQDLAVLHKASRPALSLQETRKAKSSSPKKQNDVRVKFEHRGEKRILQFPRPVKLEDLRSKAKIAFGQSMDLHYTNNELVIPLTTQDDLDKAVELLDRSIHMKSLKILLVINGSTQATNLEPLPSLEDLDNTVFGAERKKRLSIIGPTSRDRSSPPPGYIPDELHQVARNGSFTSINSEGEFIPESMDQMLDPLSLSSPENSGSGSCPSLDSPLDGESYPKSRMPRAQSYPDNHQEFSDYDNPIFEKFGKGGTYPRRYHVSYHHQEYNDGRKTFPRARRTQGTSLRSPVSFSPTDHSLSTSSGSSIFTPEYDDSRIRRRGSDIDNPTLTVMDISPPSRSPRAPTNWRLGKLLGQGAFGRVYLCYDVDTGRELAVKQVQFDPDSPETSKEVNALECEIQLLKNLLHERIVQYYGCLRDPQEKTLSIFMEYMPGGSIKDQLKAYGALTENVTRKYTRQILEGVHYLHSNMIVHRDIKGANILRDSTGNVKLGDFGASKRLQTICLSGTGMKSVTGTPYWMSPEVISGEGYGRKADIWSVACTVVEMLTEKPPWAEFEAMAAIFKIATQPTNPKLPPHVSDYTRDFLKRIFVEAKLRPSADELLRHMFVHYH
The conditions noted are these: MEKK2(h), read-out: Inhibition rate. Put shortly: as §1

T2 sequence (P49759 whole entry): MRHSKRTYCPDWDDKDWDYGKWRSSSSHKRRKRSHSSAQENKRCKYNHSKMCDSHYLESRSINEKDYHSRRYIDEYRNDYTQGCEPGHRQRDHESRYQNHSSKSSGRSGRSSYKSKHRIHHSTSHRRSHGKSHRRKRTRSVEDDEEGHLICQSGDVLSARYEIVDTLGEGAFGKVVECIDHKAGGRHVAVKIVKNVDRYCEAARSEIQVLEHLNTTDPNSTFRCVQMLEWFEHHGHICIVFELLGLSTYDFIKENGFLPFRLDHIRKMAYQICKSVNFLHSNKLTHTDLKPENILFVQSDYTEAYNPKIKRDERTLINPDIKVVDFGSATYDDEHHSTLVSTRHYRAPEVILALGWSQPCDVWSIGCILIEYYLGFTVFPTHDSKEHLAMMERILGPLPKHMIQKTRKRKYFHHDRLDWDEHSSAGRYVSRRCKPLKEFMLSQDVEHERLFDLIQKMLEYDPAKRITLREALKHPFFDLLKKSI
T5 sequence (Q8IU85 whole entry): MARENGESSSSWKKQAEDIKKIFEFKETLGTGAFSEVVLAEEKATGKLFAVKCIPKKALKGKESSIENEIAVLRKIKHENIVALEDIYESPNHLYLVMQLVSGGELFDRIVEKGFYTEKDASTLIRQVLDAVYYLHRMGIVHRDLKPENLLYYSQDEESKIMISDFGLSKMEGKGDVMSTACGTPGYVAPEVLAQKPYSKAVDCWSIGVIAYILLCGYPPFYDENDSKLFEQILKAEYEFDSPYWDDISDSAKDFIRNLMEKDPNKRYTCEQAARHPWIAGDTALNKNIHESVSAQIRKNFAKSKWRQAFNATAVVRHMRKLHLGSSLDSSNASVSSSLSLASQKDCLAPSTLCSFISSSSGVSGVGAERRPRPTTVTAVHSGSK

For `C=CC(=O)Nc1cc(-c2cc(-c3cc4c([nH]3)CCNC4=O)ccn2)ccc1OC(F)(F)F` [compound 11], the inhibition at 0.01 µM is -6% in experiment [1] (10 nM); -7% in experiment [2] (10 nM); -4% in experiment [3] (10 nM); -6% in experiment [4] (10 nM); -3% in experiment [5] (10 nM); -13% in experiment [6] (10 nM). In experiment [7] (10 nM), the inhibition at 0.01 µM was -3%. Also, the inhibition at 0.1 µM in experiment [1] (100 nM) is 5%; in experiment [2] (100 nM) it was 12%; in experiment [3] (100 nM), -6%; in experiment [4] (100 nM), -4%; in experiment [5] (100 nM), -6%; in experiment [6] (100 nM), -9%. Moreover, the inhibition at 0.1 µM in experiment [7] (100 nM) is 2%. Also, the inhibition at 1 µM in experiment [1] (1000 nM) is 27%; in experiment [2] (1000 nM), 70%; in experiment [3] (1000 nM) it was 0%; in experiment [4] (1000 nM), -1%; in experiment [5] (1000 nM), 1%; in experiment [6] (1000 nM) it was 3%. The inhibition at 1 µM in experiment [7] (1000 nM) was -2%.
